Legend:
Assay in all cases: Kinase inhibitor library screening, PrestoBlue cell viability, 1 or 10 μM, 72 h
[1] = system: A375-GP cells (Dabrafenib-resistant); conditions: A375 GP
Method: (§1) After 72 h of treatment, cell viability was assessed using the PrestoBlue Cell Viability Reagent (ThermoFisher Scientific). Measurements were performed with the CLARIOstar Monochromator microplate reader (BMG Labtech).
(§2) Kinase inhibitor library screening. […] Each cell line was treated in its sensitive form (parental), and also as 2 resistant derivatives, which were made resistant to either Vemurafenib (XP) or Dabrafenib (GP). Drugs were added at 2 different concentrations, 1 and 10 μM, for 72 h and cell viability was assessed using the PrestoBlue Cell Viability assay. Results are depicted as % viability compared to untreated cells. Each cell line was analyzed at least in duplicate. […] (XLSX 95 kb)

[2] = system: IGR37-GP cells (Dabrafenib-resistant); conditions: IGR37 GP
Method: as §1, §2

[3] = system: IGR37-XP cells (Vemurafenib-resistant); conditions: IGR37 XP
Method: as §1, §2

[4] = system: 501Mel-GP cells (Dabrafenib-resistant); conditions: 501Mel GP
Method: as §1, §2

[5] = system: A375 cells (parental); conditions: A375 Parental
Method: as §1, §2

[6] = system: 501Mel-XP cells (Vemurafenib-resistant); conditions: 501Mel XP
Method: as §1, §2

[7] = system: 501Mel cells (parental); conditions: 501Mel Parental
Method: as §1, §2

[8] = system: IGR37 cells (parental); conditions: IGR37 Parental
Method: as §1, §2

[9] = system: A375-XP cells (Vemurafenib-resistant); conditions: A375 XP
Method: as §1, §2

Compound: Cc1nc(NC(=O)N2CCC[C@H]2C(N)=O)sc1-c1ccnc(C(C)(C)C(F)(F)F)c1 [BYL719]
- Cell viability in kinase inhibitor library screening, A375 GP, 1μΜ ([1]; 1μΜ, 72 h): 86.9
- Cell viability in kinase inhibitor library screening, A375 GP, 10μΜ ([1]; 10μΜ, 72 h): 52.5
- Cell viability in kinase inhibitor library screening, IGR37 GP, 10μΜ ([2]; 10μΜ, 72 h): 62.1%
- Cell viability in kinase inhibitor library screening, IGR37 GP, 1μΜ ([2]; 1μΜ, 72 h, in %): 90.5
- Cell viability in kinase inhibitor library screening, IGR37 XP, 10μΜ ([3]; 10μΜ, 72 h): 20.2%
- Cell viability in kinase inhibitor library screening, IGR37 XP, 1μΜ ([3]; 1μΜ, 72 h, in %): 80.6
- Cell viability in kinase inhibitor library screening, 501Mel GP, 10μΜ ([4]; 10μΜ, 72 h, in %): 62.2
- Cell viability in kinase inhibitor library screening, A375 Parental, 10μΜ ([5]; 10μΜ, 72 h): 60.2
- Cell viability in kinase inhibitor library screening, A375 Parental, 1μΜ ([5]; 1μΜ, 72 h): 93.2
- Cell viability in kinase inhibitor library screening, 501Mel XP, 1μΜ ([6]; 1μΜ, 72 h, in %): 90.3
- Cell viability in kinase inhibitor library screening, 501Mel XP, 10μΜ ([6]; 10μΜ, 72 h, in %): 56.3
- Cell viability in kinase inhibitor library screening, 501Mel Parental, 1μΜ ([7]; 1μΜ, 72 h, in %): 99.0
- Cell viability in kinase inhibitor library screening, 501Mel Parental, 10μΜ ([7]; 10μΜ, 72 h, in %): 90.7
- Cell viability in kinase inhibitor library screening, IGR37 Parental, 1μΜ ([8]; 1μΜ, 72 h, in %): 99.1
- Cell viability in kinase inhibitor library screening, IGR37 Parental, 10μΜ ([8]; 10μΜ, 72 h, in %): 77.8
- Cell viability in kinase inhibitor library screening, A375 XP, 1μΜ ([9]; 1μΜ, 72 h): 93.5
- Cell viability in kinase inhibitor library screening, A375 XP, 10μΜ ([9]; 10μΜ, 72 h): 62.9

Compound: O=c1cc(-c2cccc3c2Sc2ccccc2S3)oc(N2CCOCC2)c1 [KU-55933]
- cell viability (kinase inhibitor library screening) ([1]; 1μΜ, 72 h): 92.9%
- cell viability (kinase inhibitor library screening) ([1]; 10μΜ, 72 h): 89.1%
- cell viability (kinase inhibitor library screening) ([2]; 1μΜ, 72 h): 98.2%
- cell viability (kinase inhibitor library screening) ([2]; 10μΜ, 72 h): 67.8%
- cell viability (kinase inhibitor library screening) ([3]; 1μΜ, 72 h): 105.2%
- cell viability (kinase inhibitor library screening) ([3]; 10μΜ, 72 h): 34.9%
- cell viability (kinase inhibitor library screening) ([4]; 1μΜ, 72 h): 98.9%
- cell viability (kinase inhibitor library screening) ([4]; 10μΜ, 72 h): 76.6%
- cell viability (kinase inhibitor library screening) ([5]; 10μΜ, 72 h): 90.0%
- cell viability (kinase inhibitor library screening) ([5]; 1μΜ, 72 h): 105.8%
- cell viability (kinase inhibitor library screening) ([6]; 1μΜ, 72 h): 87.7%
- cell viability (kinase inhibitor library screening) ([6]; 10μΜ, 72 h): 65.9%
- cell viability (kinase inhibitor library screening) ([7]; 10μΜ, 72 h): 90.2%
- cell viability (kinase inhibitor library screening) ([8]; 1μΜ, 72 h): 113.8%
- cell viability (kinase inhibitor library screening) ([8]; 10μΜ, 72 h): 80.4%
- cell viability (kinase inhibitor library screening) ([9]; 1μΜ, 72 h): 104.1%
- cell viability (kinase inhibitor library screening) ([9]; 10μΜ, 72 h): 92.4%

Compound: Cc1cc2c(F)c(Oc3ncnn4cc(OC[C@@H](C)OC(=O)[C@H](C)N)c(C)c34)ccc2[nH]1 [Brivanib alaninate (BMS-582664)]
- cell viability (kinase inhibitor library screening) ([1]; 1μΜ, in %): 98.8
- cell viability (kinase inhibitor library screening) ([1]; 10μΜ, in %): 80.1
- cell viability (kinase inhibitor library screening) ([2]; 1μΜ, in %): 99.8
- cell viability (kinase inhibitor library screening) ([2]; 10μΜ, in %): 95.3
- cell viability (kinase inhibitor library screening) ([3]; 1μΜ, in %): 99.9
- cell viability (kinase inhibitor library screening) ([3]; 10μΜ, in %): 74.9
- cell viability (kinase inhibitor library screening) ([4]; 1μΜ, in %): 107.2
- cell viability (kinase inhibitor library screening) ([4]; 10μΜ, in %): 88.2
- cell viability (kinase inhibitor library screening) ([5]; 1μΜ, in %): 104.1
- cell viability (kinase inhibitor library screening) ([5]; 10μΜ, in %): 82.8
- cell viability (kinase inhibitor library screening) ([6]; 1μΜ, in %): 97.0
- cell viability (kinase inhibitor library screening) ([6]; 10μΜ, in %): 83.1
- cell viability (kinase inhibitor library screening) ([7]; 1μΜ, in %): 99.4
- cell viability (kinase inhibitor library screening) ([7]; 10μΜ, in %): 91.7
- cell viability (kinase inhibitor library screening) ([8]; 1μΜ, in %): 107.1
- cell viability (kinase inhibitor library screening) ([8]; 10μΜ, in %): 96.2
- cell viability (kinase inhibitor library screening) ([9]; 1μΜ, in %): 105.2
- cell viability (kinase inhibitor library screening) ([9]; 10μΜ, in %): 81.3

Compound: CC(C)(C)c1cnc(CSc2cnc(NC(=O)C3CCNCC3)s2)o1 [SNS-032 (BMS-387032)]
- cell viability (kinase inhibitor library screening) ([1]; 1μΜ, 72 h): 8.3%
- cell viability (kinase inhibitor library screening) ([1]; 10μΜ, 72 h): 3.6%
- cell viability (kinase inhibitor library screening) ([2]; 1μΜ, 72 h): 8.6%
- cell viability (kinase inhibitor library screening) ([2]; 10μΜ, 72 h): 2.7%
- cell viability (kinase inhibitor library screening) ([3]; 1μΜ, 72 h): 2.8%
- cell viability (kinase inhibitor library screening) ([3]; 10μΜ, 72 h): 2.1%
- cell viability (kinase inhibitor library screening) ([4]; 1μΜ, 72 h): 31.8%
- cell viability (kinase inhibitor library screening) ([4]; 10μΜ, 72 h): 0.161%
- cell viability (kinase inhibitor library screening) ([5]; 10μΜ, 72 h): 7.7%
- cell viability (kinase inhibitor library screening) ([5]; 1μΜ, 72 h): 13.7%
- cell viability (kinase inhibitor library screening) ([6]; 1μΜ, 72 h): 30.8%
- cell viability (kinase inhibitor library screening) ([6]; 10μΜ, 72 h): -0.0482%
- cell viability (kinase inhibitor library screening) ([7]; 1μΜ, 72 h): 23.5%
- cell viability (kinase inhibitor library screening) ([7]; 10μΜ, 72 h): 0.4%
- cell viability (kinase inhibitor library screening) ([8]; 1μΜ, 72 h): 3.3%
- cell viability (kinase inhibitor library screening) ([8]; 10μΜ, 72 h): 0.754%
- cell viability (kinase inhibitor library screening) ([9]; 1μΜ, 72 h): 14.3%
- cell viability (kinase inhibitor library screening) ([9]; 10μΜ, 72 h): 6.4%

Compound: Cc1cnc(Nc2ccc(N3CCN(C)CC3)cc2)nc1Nc1cccc(S(=O)(=O)NC(C)(C)C)c1 [TG101209]
- cell viability, A375 GP, 1μΜ ([1]; 1μΜ, 72 h, in %): 79.9
- cell viability, A375 GP, 10μΜ ([1]; 10μΜ, 72 h, in %): 14.4
- cell viability, IGR37 GP, 10μΜ ([2]; 10μΜ, 72 h): 3.2%
- cell viability, IGR37 GP, 1μΜ ([2]; 1μΜ, 72 h, in %): 98.5
- cell viability, IGR37 XP, 10μΜ ([3]; 10μΜ, 72 h): 1.6%
- cell viability, IGR37 XP, 1μΜ ([3]; 1μΜ, 72 h, in %): 82.7
- cell viability, 501Mel GP, 1μΜ ([4]; 1μΜ, 72 h, in %): 109.4
- cell viability, 501Mel GP, 10μΜ ([4]; 10μΜ, 72 h, in %): 1.7
- cell viability, A375 Parental, 1μΜ ([5]; 1μΜ, 72 h, in %): 87.8
- cell viability, A375 Parental, 10μΜ ([5]; 10μΜ, 72 h, in %): 11.9
- cell viability, 501Mel XP, 1μΜ ([6]; 1μΜ, 72 h, in %): 85.2
- cell viability, 501Mel XP, 10μΜ ([6]; 10μΜ, 72 h, in %): -0.127
- cell viability, 501Mel Parental, 10μΜ ([7]; 10μΜ, 72 h, in %): 0.6
- cell viability, IGR37 Parental, 1μΜ ([8]; 1μΜ, 72 h, in %): 97.5
- cell viability, IGR37 Parental, 10μΜ ([8]; 10μΜ, 72 h, in %): 6.5
- cell viability, A375 XP, 1μΜ ([9]; 1μΜ, 72 h, in %): 93.3
- cell viability, A375 XP, 10μΜ ([9]; 10μΜ, 72 h, in %): 13.1

Compound: COc1cccc(-c2cc(=O)c3ccccc3o2)c1N [PD98059]
- cell viability, A375 GP, 1μΜ ([1]; 1μΜ, 72 h, in %): 95.5
- cell viability, A375 GP, 10μΜ ([1]; 10μΜ, 72 h, in %): 83.6
- cell viability, IGR37 GP, 10μΜ ([2]; 10μΜ, 72 h): 88.7%
- cell viability, IGR37 GP, 1μΜ ([2]; 1μΜ, 72 h, in %): 94.1
- cell viability, IGR37 XP, 10μΜ ([3]; 10μΜ, 72 h): 61.9%
- cell viability, 501Mel GP, 1μΜ ([4]; 1μΜ, 72 h, in %): 104.1
- cell viability, 501Mel GP, 10μΜ ([4]; 10μΜ, 72 h, in %): 84.1
- cell viability, A375 Parental, 1μΜ ([5]; 1μΜ, 72 h, in %): 98.4
- cell viability, 501Mel XP, 1μΜ ([6]; 1μΜ, 72 h, in %): 97.3
- cell viability, 501Mel XP, 10μΜ ([6]; 10μΜ, 72 h, in %): 80.0
- cell viability, 501Mel Parental, 1μΜ ([7]; 1μΜ, 72 h, in %): 98.8
- cell viability, 501Mel Parental, 10μΜ ([7]; 10μΜ, 72 h, in %): 79.8
- cell viability, IGR37 Parental, 10μΜ ([8]; 10μΜ, 72 h, in %): 81.4
- cell viability, A375 XP, 1μΜ ([9]; 1μΜ, 72 h, in %): 102.6
- cell viability, A375 XP, 10μΜ ([9]; 10μΜ, 72 h, in %): 94.1

— article PMC6364417, “Kinase inhibitor library screening identifies synergistic drug combinations effective in sensitive and resistant melanoma cells” (Journal of Experimental & Clinical Cancer Research : CR, 2019)
